Experimental data as given in patent US20250206738A1, “WRN INHIBITORS” (Nimbus Wadjet, Inc., priority 2023, published 2025).

Experiments:
[1] = test system: p21 induction in HCT 116 cells; test: p21 induction in cells (In-Cell Western, p21/GAPDH ratio); format: cell-based; conditions: Homo sapiens, HCT-116, 24 h, 24 h compound incubation, read-out: P21_EC50
Experimental: Example 3: Method for Determining Effect on p21 Induction in Cells
The colon carcinoma cell line HCT 116 was obtained from ATCC and cultured in growth medium consisting of Mccoy's 5A Medium (Gibco 16600108) supplemented with 10% FBS (Transgene FS201-02) and 100 units/mL penicillin-streptomycin (Gibco 15140122) and maintained at 37° C. under 5% CO2. On the day of seeding, 2,000 cells in 30 μL of culture media were plated per well to Poly-D-Lysine 384 Well Black Clear Plates (Biocoat 356663) and incubated overnight at 37° C. under 5% CO2. The following day, compounds were serially diluted in DMSO for a total of 11 test concentrations. The typical starting concentration of compounds was 10 μM with 2-fold dilutions. Next, 150 nL of diluted compound was added in duplicate to the assay plate, using an Echo 655 (Labcyte). The plate was centrifuged at 500 RPM for 1 min and then incubated at 37° C. under 5% CO2 for 24 h. After 24h, medium was removed, and cells were fixed by adding 40 μL of 4% paraformaldehyde solution to each well and incubated for 20 min at room temperature. The plate was then washed 4 times with 100 μL per well of wash buffer (PBS with 0.1% Tween-20) using a microplate washer. Next, 30 μL of ice-cold methanol was added to each well and the plate was incubated at −20° C. for 10 min. The plate was washed 4 times with 100 μL per well of wash buffer by a microplate washer, then 30 μL per well of blocking buffer (Intercept PBS blocking buffer (LI-COR 927-70001) with 0.05% Tween-20) was added and the plate was incubated at room temperature with shaking for 2h. Next, to each test well, 20 μL of primary antibody solution (p21 Waf1/CIP (12D1) RabbitmAb (Cell Signaling Technologies 2947) diluted 1:1000 and GAPDH (D4C6R) Mouse mAb (Cell Signaling Technologies 97166) diluted 1:2000 in blocking buffer) was added and the plate was placed at 4° C., overnight. The following day, the plate was washed 5 times with 100 μL per well of wash buffer using a microplate washer for 5 min. 20 μL per well of secondary antibody (IRDye 680CW Goat anti-Mouse IgG (H+L) (LI-COR 926-68070) diluted 1: 2000 in Blocking Buffer and IRDye 800CW Goat anti-Rabbit IgG (H+L) (LI-COR 926-32211) diluted 1: 2000 in Blocking Buffer) was then added and the plate was stored for 2h in the dark at room temperature with shaking. The plate was then washed 4 times with 100 μL per well of wash buffer again using a microplate washer. Finally, the p21 signal and the GAPDH signal were quantified using a LI-COR Odyssey CLx Imager machine reading at 800 nm and 700 nm, respectively. Each plate contained DMSO control (low control) and an internal reference WRN inhibitor (high control) respectively. For quantitation, the 800 nm/700 nm ratio was calculated for each well to give fold p21 induction and then percent activation for each compound well was calculated as follows (100×(ratio cpd well−ratio low control)/(ratio high control−ratio low control)). EC50 values for each compound were generated after non-linear regression curve fitting using commercially available software.

[2] = target: T1, human Werner helicase (WRN, Uniprot Q14191, amino acids 517-1235 with L1074F point mutation; WRN-BV08) (Homo sapiens, UniProt Q14191, L1074F); test: WRN (BV08) ADP-Glo assay; format: biochemical; conditions: WRN-BV08 (aa 517-1235, L1074F); read-out: ADP-Glo_hWRN_IC50
T1 construct: Uniprot Q14191, amino acids 517-1235 with L1074F point mutation; 8xHis (C, cleaved yes); TEV cleavage site (ENLYFQG) (C, cleaved yes); made in house; host or cells: Sf9 insect cells (baculovirus, pFastBac)
T1 sequence (Q14191 with tags, fused parts or gaps L1074F): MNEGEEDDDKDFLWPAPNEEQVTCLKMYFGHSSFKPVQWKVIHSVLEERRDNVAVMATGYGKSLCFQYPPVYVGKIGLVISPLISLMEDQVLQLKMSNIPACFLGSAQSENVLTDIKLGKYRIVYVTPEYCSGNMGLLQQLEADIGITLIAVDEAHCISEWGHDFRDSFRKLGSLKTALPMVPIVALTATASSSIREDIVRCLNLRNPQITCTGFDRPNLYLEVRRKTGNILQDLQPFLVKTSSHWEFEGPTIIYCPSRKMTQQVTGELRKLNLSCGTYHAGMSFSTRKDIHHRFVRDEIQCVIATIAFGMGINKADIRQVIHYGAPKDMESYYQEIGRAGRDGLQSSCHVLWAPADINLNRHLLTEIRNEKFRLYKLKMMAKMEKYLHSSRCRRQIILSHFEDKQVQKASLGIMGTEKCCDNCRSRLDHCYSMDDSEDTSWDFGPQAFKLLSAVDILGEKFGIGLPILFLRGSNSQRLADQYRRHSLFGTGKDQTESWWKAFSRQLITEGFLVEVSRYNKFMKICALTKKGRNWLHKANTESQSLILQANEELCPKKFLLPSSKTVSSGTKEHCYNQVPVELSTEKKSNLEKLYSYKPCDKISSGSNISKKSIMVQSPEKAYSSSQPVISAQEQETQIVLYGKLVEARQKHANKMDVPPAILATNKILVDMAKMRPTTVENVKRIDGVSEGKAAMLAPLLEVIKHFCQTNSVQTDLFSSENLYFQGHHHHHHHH
Outline: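 ADP formed by untagged WRN helicase fragment (aa 517-1235, L1074F; 0.15 nM final) on 0.1 nM DNA duplex with […], 60 min at 25 °C after 15 min compound preincubation, pH 7.5 Bicine buffer. Luminescent ADP-Glo readout; IC50 from 4-parameter fit of % inhibition.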

| Structure (SMILES) | EC50 [1] [µM] | IC50 [2] [µM] |
| --- | --- | --- |
| CCc1c(N2CCN(C(=O)c3c(O)ccc4ncoc34)CC2)c(=O)n2nc(-c3ccnc(OC)c3)nc2n1CC(=O)NC12CC(C3CC3)(C1)C2 [I-36, N-(3-cyclopropylbicyclo[1.1.1]pentan-1-yl)-2-(5-ethyl-6-(4-(6-hydroxybenzo[d]oxazole-7-carbonyl)piperazin-1-yl)-2-(2-methoxypyridin-4-yl)-7-oxo-[1,2,4]triazolo[1,5-a]pyrimidin-4(7H)-yl)acetamide] | ≤ 0.5 | ≤ 0.005 |
| CCc1c(N2CCN(C(=O)c3ncnc(C)c3O)CC2)c(=O)n2nc(C3=CCN(C(=O)COC)CC3)nc2n1CC(=O)NC12CC(C3CC3)(C1)C2 [I-18, N-(3-cyclopropylbicyclo[1.1.1]pentan-1-yl)-2-(5-ethyl-6-(4-(5-hydroxy-6-methylpyrimidine-4-carbonyl)piperazin-1-yl)-2-(1-(2-methoxyacetyl)-1,2,3,6-tetrahydropyridin-4-yl)-7-oxo-[1,2,4]triazolo[1,5-a]pyrimidin-4(7H)-yl)acetamide] | > 5 | 0.005 to 0.05 |
| CCc1c(N2CCN(C(=O)c3c(O)ccc4ncoc34)CC2)c(=O)n2nc(-c3ccnc(OC)c3)nc2n1CC(=O)NC12CC(CCF)(C1)C2 [I-31, 2-(5-ethyl-6-(4-(6-hydroxybenzo[d]oxazole-7-carbonyl)piperazin-1-yl)-2-(2-methoxypyridin-4-yl)-7-oxo-[1,2,4]triazolo[1,5-a]pyrimidin-4(7H)-yl)-N-(3-(2-fluoroethyl)bicyclo[1.1.1]pentan-1-yl)acetamide] | 0.5 to 2 | 0.005 to 0.05 |
| CCc1c(N2CCN(C(=O)c3c(O)ccc4ncoc34)CC2)c(=O)n2nc(-c3ccnc(OC)c3)nc2n1CC(=O)NC12COC(C(F)(F)F)(C1)C2 [I-44, 2-(5-ethyl-6-(4-(6-hydroxybenzo[d]oxazole-7-carbonyl)piperazin-1-yl)-2-(2-methoxypyridin-4-yl)-7-oxo-[1,2,4]triazolo[1,5-a]pyrimidin-4(7H)-yl)-N-(1-(trifluoromethyl)-2-oxabicyclo[2.1.1]hexan-4-yl)acetamide] | 2 to 5 | 0.005 to 0.05 |
| CCc1c(N2CCN(C(=O)c3ncnc(C)c3O)[C@H]3CC[C@@H]32)c(=O)n2nc(-c3ccnc(OC)c3)nc2n1CC(=O)NC12CC(C(F)(F)F)(C1)C2 [I-48, 2-(5-ethyl-6-((1S,6S)-5-(5-hydroxy-6-methylpyrimidine-4-carbonyl)-2,5-diazabicyclo[4.2.0]octan-2-yl)-2-(2-methoxypyridin-4-yl)-7-oxo-[1,2,4]triazolo[1,5-a]pyrimidin-4(7H)-yl)-N-(3-(trifluoromethyl)bicyclo[1.1.1]pentan-1-yl)acetamide] | ≤ 0.5 | 0.005 to 0.05 |
| CCc1c(N2CCN(C(=O)c3ncnc(C)c3O)CC2)c(=O)n2nc(-c3ccnc(OC)c3)nc2n1CC(=O)NC1CC(C(F)(F)F)C1 (stereo not drawn) [I-27, 2-(5-ethyl-6-(4-(5-hydroxy-6-methylpyrimidine-4-carbonyl)piperazin-1-yl)-2-(2-methoxypyridin-4-yl)-7-oxo-[1,2,4]triazolo[1,5-a]pyrimidin-4(7H)-yl)-N-(3-(trifluoromethyl)cyclobutyl)acetamide] | > 5 | 0.1 to 0.5 |
| CCc1c(N2CCN(C(=O)c3ncnc(C)c3O)CC2)c(=O)c2nc(N(C)C)cnc2n1CC(=O)NC12CC(C(F)(F)F)(C1)C2 [I-1, 2-(2-(dimethylamino)-6-ethyl-7-(4-(5-hydroxy-6-methylpyrimidine-4-carbonyl)piperazin-1-yl)-8-oxopyrido[2,3-b]pyrazin-5(8H)-yl)-N-(3-(trifluoromethyl)bicyclo[1.1.1]pentan-1-yl)acetamide] | > 5 | 0.1 to 0.5 |
| CCc1c(N2CCN(C(=O)c3ncnc(C)c3O)[C@H]3CC[C@@H]32)c(=O)n2c(=O)n(-c3ccnc(OC)c3)nc2n1CC(=O)NC12CC(C3CC3)(C1)C2 [I-209, N-(3-cyclopropylbicyclo[1.1.1]pentan-1-yl)-2-(7-ethyl-6-((1S,6S)-5-(5-hydroxy-6-methylpyrimidine-4-carbonyl)-2,5-diazabicyclo[4.2.0]octan-2-yl)-2-(2-methoxypyridin-4-yl)-3,5-dioxo-2,3-dihydro-[1,2,4]triazolo[4,3-a]pyrimidin-8(5H)-yl)acetamide] | ≤ 0.5 | 0.005 to 0.05 |
| CCc1c(N2CCN(C(=O)c3c(OC)ncc(C4CCOC4)c3O)CC2)c(=O)c2nn(-c3ccnc(OC)c3)nc2n1CC(=O)NC12CC(C(C)C)(C1)C2 (single isomer, unassigned) [I-64] | 0.5 to 2 | 0.005 to 0.05 |
| CCc1c(N2CCN(C(=O)c3ncnc(C)c3O)[C@H]3CC[C@@H]32)c(=O)c2nc(N(C)C)cnc2n1CC(=O)NC12CC(C3CCCC3)(C1)C2 [I-224, N-(3-cyclopentylbicyclo[1.1.1]pentan-1-yl)-2-(2-(dimethylamino)-6-ethyl-7-((1S,6S)-5-(5-hydroxy-6-methylpyrimidine-4-carbonyl)-2,5-diazabicyclo[4.2.0]octan-2-yl)-8-oxopyrido[2,3-b]pyrazin-5(8H)-yl)acetamide] | 0.5 to 2 | 0.005 to 0.05 |
| CCc1c(N2CCN(C(=O)c3c(O)ccc4ncoc34)CC2)c(=O)n2nc(-c3ccnc(OC)c3)nc2n1CC(=O)NC12CC(CC)(C1)C2 [I-23, 2-(5-ethyl-6-(4-(6-hydroxybenzo[d]oxazole-7-carbonyl)piperazin-1-yl)-2-(2-methoxypyridin-4-yl)-7-oxo-[1,2,4]triazolo[1,5-a]pyrimidin-4(7H)-yl)-N-(3-ethylbicyclo[1.1.1]pentan-1-yl)acetamide] | ≤ 0.5 | 0.005 to 0.05 |
| CCc1c(N2CCN(C(=O)c3c(O)ccc4ncoc34)CC2)c(=O)n2nc(N(C)C)nc2n1CC(=O)NC12CC(C(C)C)(C1)C2 [I-43, 2-(2-(dimethylamino)-5-ethyl-6-(4-(6-hydroxybenzo[d]oxazole-7-carbonyl)piperazin-1-yl)-7-oxo-[1,2,4]triazolo[1,5-a]pyrimidin-4(7H)-yl)-N-(3-isopropylbicyclo[1.1.1]pentan-1-yl)acetamide] | 0.5 to 2 | 0.005 to 0.05 |
| CCc1c(N2CCN(C(=O)c3ncnc(C)c3O)CC2)c(=O)n2nc(N(C)C)nc2n1CC(=O)NC12CC(C(F)(F)F)(C1)C2 [I-33, 2-(2-(dimethylamino)-5-ethyl-6-(4-(5-hydroxy-6-methylpyrimidine-4-carbonyl)piperazin-1-yl)-7-oxo-[1,2,4]triazolo[1,5-a]pyrimidin-4(7H)-yl)-N-(3-(trifluoromethyl)bicyclo[1.1.1]pentan-1-yl)acetamide] | > 5 | 0.1 to 0.5 |
| CCc1c(N2CCN(C(=O)c3ncnc(C)c3O)[C@H]3CC[C@@H]32)c(=O)c2nn(C3=CCOC(C)C3)nc2n1CC(=O)NC12CC(C3CC3)(C1)C2 (single isomer, unassigned) [I-169] | ≤ 0.5 | 0.005 to 0.05 |
| CCc1c(N2CCN(C(=O)c3cnn(C)c3)CC2)c(=O)n2nc(-c3ccnc(OC)c3)nc2n1CC(=O)NC1Cc2ccc(F)cc2C1 (stereo not drawn) [I-246, 2-(5-ethyl-2-(2-methoxypyridin-4-yl)-6-(4-(1-methyl-1H-pyrazole-4-carbonyl)piperazin-1-yl)-7-oxo-[1,2,4]triazolo[1,5-a]pyrimidin-4(7H)-yl)-N-(5-fluoro-2,3-dihydro-1H-inden-2-yl)acetamide] | > 5 | 0.1 to 0.5 |
